Test results reported in patent publication US20230391770A1, “METTL3 INHIBITORY COMPOUNDS” (Storm Therapeutics Limited, priority 2020, published 2023).

What follows are compounds tested against METTL3/14 (Homo sapiens (Human), UniProt Q86U44) (assay: METTL3/14 methyltransferase biochemical assay (RapidFire mass spectrometry, METTL3_14 RFMS)). Conditions: not given.
Description: The enzymatic assay was established to determine IC50 values for inhibition of RNA methyltransferase activity. The enzyme used was full-length his-tagged METTL3 co-expressed with full length FLAG-tagged METTL14 in a baculovirus expression system. […] The reaction was incubated for further 60 minutes at room temperature, and then quenched by the addition of 40 μL 7.5% TCA with two internal product standards (D4-SAH and ^13C10-SAH). After termination, plates were sealed, centrifuged and stored at 4° C. until analysis. […] RNA methyltransferase activity was measured label free using the RapidFireTM mass spectrometry (RF/MS) platform. Stopped and stable assay plates were analyzed on the Agilent RF300 integrated autosampler/solid-phase extraction (SPE) system coupled to an ABSciex 4000 mass spectrometer for the generation of the product S-adenosyl homocysteine (SAH) and normalized to the ratio of signal of the two internal product standards, respectively. Solvent A was water containing 0.1% (v/v) TCA. Solvent B was acetonitrile/0.1% ammonium acetate (8:2, v/v).

Chain of METTL3/14 (Q86U44 whole entry): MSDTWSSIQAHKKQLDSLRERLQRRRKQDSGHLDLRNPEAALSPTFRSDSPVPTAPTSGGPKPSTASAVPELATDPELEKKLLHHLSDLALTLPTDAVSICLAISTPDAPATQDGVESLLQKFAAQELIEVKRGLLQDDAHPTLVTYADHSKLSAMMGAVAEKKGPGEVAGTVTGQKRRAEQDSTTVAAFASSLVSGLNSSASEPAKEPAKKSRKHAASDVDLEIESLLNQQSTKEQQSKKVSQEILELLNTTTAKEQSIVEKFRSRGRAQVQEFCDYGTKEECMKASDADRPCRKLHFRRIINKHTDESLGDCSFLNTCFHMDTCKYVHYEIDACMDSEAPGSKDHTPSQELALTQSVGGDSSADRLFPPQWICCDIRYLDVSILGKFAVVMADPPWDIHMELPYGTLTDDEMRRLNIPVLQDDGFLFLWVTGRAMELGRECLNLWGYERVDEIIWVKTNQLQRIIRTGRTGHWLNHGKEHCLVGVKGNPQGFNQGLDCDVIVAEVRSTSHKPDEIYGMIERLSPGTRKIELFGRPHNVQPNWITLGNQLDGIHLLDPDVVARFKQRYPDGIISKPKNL
Chain of METTL3/14 (Q9HCE5 whole entry partner): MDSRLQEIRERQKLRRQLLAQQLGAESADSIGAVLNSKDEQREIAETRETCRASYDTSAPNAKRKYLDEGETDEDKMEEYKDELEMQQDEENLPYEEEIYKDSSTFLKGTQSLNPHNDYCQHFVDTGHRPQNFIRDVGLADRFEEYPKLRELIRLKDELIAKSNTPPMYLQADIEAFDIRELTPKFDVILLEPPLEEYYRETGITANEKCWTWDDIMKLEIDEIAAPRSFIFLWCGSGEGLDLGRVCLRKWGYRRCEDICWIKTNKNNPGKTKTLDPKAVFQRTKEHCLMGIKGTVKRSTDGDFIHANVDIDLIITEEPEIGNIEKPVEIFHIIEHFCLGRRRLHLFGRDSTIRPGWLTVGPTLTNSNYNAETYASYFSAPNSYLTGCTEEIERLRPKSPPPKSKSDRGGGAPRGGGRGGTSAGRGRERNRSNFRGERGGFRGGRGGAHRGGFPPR

In order of falling IC50:
1. O=C(NCc1cn2cc(CNCC3CCC3)ccc2n1)c1ccc2[nH]ccc2c1 [Example 17, N-[(6-{[(cyclobutylmethyl)amino]methyl}imidazo[1,2-a]pyridin-2-yl)methyl]-1H-indole-5-carboxamide]  3820 nM
2. Cn1ccc2cc(C(=O)NCc3cn4cc(CNCC5CCC5)ccc4n3)cnc21 [Example 16, N-[(6-{[(cyclobutylmethyl)amino]methyl}imidazo[1,2-a]pyridin-2-yl)methyl]-1-methyl-1H-pyrrolo[2,3-b]pyridine-5-carboxamide]  1600 nM
3. O=C(NCc1cn2cc(CNCC3CCCCC3)ccc2n1)c1ccnc2[nH]ncc12 [Example 7, N-[(6-{[(cyclohexylmethyl)amino]methyl}imidazo[1,2-a]pyridin-2-yl)methyl]-1H-pyrazolo[3,4-b]pyridine-4-carboxamide]  1400 nM
4. c1ccc2c(-c3cn(Cc4cn5cc(CN(CC6CCC6)CC6CCC6)ccc5n4)nn3)cncc2c1 [Example 32, bis(cyclobutylmethyl)[(2-{[4-(isoquinolin-4-yl)-1H-1,2,3-triazol-1-yl]methyl}imidazo[1,2-a]pyridin-6-yl)methyl]amine]  1260 nM
5. N#Cc1ncc(F)cc1-c1cn(Cc2cn3cc(CN4CCC5(CCC5)C4)ccc3n2)nn1 [Example 42, 3-(1-{[6-({6-azaspiro[3.4]octan-6-yl}methyl)imidazo[1,2-a]pyridin-2-yl]methyl}-1H-1,2,3-triazol-4-yl)-5-fluoropyridine-2-carbonitrile]  1180 nM
6. O=C(NCc1cn2cc(CNCC3CCC3)ccc2n1)c1cnc2[nH]cnc2c1 [Example 13, N-[(6-{[(cyclobutylmethyl)amino]methyl}imidazo[1,2-a]pyridin-2-yl)methyl]-3H-imidazo[4,5-b]pyridine-6-carboxamide]  1070 nM
7. Cc1nc(C(=O)NCc2cn3cc(CNCC4CCCCC4)ccc3n2)cc(=O)n1C [Example 2, N-[(6-{[(cyclohexylmethyl)amino]methyl}imidazo[1,2-a]pyridin-2-yl)methyl]-1,2-dimethyl-6-oxo-1,6-dihydropyrimidine-4-carboxamide]  719 nM
8. c1cc(-c2cn(Cc3cn4cc(CNCC5CCC5)ccc4n3)nn2)c2nncn2c1 [Example 27, (cyclobutylmethyl)({2-[(4-{[1,2,4]triazolo[4,3-a]pyridin-8-yl}-1H-1,2,3-triazol-1-yl)methyl]imidazo[1,2-a]pyridin-6-yl}methyl)amine]  236 nM
9. N#Cc1ncc(F)cc1-c1cn(Cc2cn3cc(CNCC45CC(F)(C4)C5)ccc3n2)nn1 [Example 43, 5-fluoro-3-{1-[(6-{[({3-fluorobicyclo[1.1.1]pentan-1-yl}methyl)amino]methyl}imidazo[1,2-a]pyridin-2-yl)methyl]-1H-1,2,3-triazol-4-yl}pyridine-2-carbonitrile]  235 nM
10. O=C(NCc1cn2cc(CNCC3CCCCC3)ccc2n1)c1cnc2ccccc2n1 [Example 6, N-[(6-{[(cyclohexylmethyl)amino]methyl}imidazo[1,2-a]pyridin-2-yl)methyl]quinoxaline-2-carboxamide]  151 nM
11. Cc1ncc2c(-c3cn(Cc4cn5cc(CNCC67CC(F)(C6)C7)ccc5n4)nn3)cccn12 [Example 36, ({3-fluorobicyclo[1.1.1]pentan-1-yl}methyl)({2-[(4-{3-methylimidazo[1,5-a]pyridin-8-yl}-1H-1,2,3-triazol-1-yl)methyl]imidazo[1,2-a]pyridin-6-yl}methyl)amine]  105 nM
12. O=C(NCc1cn2cc(CNCC3CCC3)ccc2n1)c1cccc2cncn12 [Example 11, N-[(6-{[(cyclobutylmethyl)amino]methyl}imidazo[1,2-a]pyridin-2-yl)methyl]imidazo[1,5-a]pyridine-5-carboxamide]  104 nM
13. COc1cnc(C(N)=O)c(-c2cn(Cc3cn4cc(CNCC56CC(F)(C5)C6)ccc4n3)nn2)c1 [Example 49, 3-{1-[(6-{[({3-fluorobicyclo[1.1.1]pentan-1-yl}methyl)amino]methyl}imidazo[1,2-a]pyridin-2-yl)methyl]-1H-1,2,3-triazol-4-yl}-5-methoxypyridine-2-carboxamide]  85 nM
14. COc1cnc(C#N)c(-c2cn(Cc3cn4cc(CN5CCC6(CCC6)C5)ccc4n3)nn2)c1 [Example 40, 3-(1-{[6-({6-azaspiro[3.4]octan-6-yl}methyl)imidazo[1,2-a]pyridin-2-yl]methyl}-1H-1,2,3-triazol-4-yl)-5-methoxypyridine-2-carbonitrile]  76 nM
15. COc1cncc(C(=O)NCc2cn3cc(CNCC4CCC4)ccc3n2)c1 [Example 46, N-[(6-{[(cyclobutylmethyl)amino]methyl}imidazo[1,2-a]pyridin-2-yl)methyl]-5-methoxypyridine-3-carboxamide]  74 nM
16. COc1cnc(C#N)c(-c2cn(Cc3cn4cc(CNCC5CCC5)ccc4n3)nn2)c1 [Example 38, 3-{1-[(6-{[(cyclobutylmethyl)amino]methyl}imidazo[1,2-a]pyridin-2-yl)methyl]-1H-1,2,3-triazol-4-yl}-5-methoxypyridine-2-carbonitrile]  57 nM
17. O=C(NCc1cn2cc(CNCC3CCC3)ccc2n1)c1cccn2cncc12 [Example 10, N-[(6-{[(cyclobutylmethyl)amino]methyl}imidazo[1,2-a]pyridin-2-yl)methyl]imidazo[1,5-a]pyridine-8-carboxamide]  36.5 nM
18. O=C(NCc1cn2cc(CNCC3CC(F)(F)C3)ccc2n1)c1cnc2[nH]ccc2c1 [Example 15, N-{[6-({[(3,3-difluorocyclobutyl)methyl]amino}methyl)imidazo[1,2-a]pyridin-2-yl]methyl}-1H-pyrrolo[2,3-b]pyridine-5-carboxamide]  27.3 nM
19. O=C(NCc1cn2cc(CNCC3CCC3)ccc2n1)c1cnc2[nH]ccc2c1 [Example 14, N-[(6-{[(cyclobutylmethyl)amino]methyl}imidazo[1,2-a]pyridin-2-yl)methyl]-1H-pyrrolo[2,3-b]pyridine-5-carboxamide]  14.5 nM
20. O=C(NCc1cn2cc(CNCC3CCC3)ccc2n1)c1cnc2[nH]ccc2n1 [Example 18, N-[(6-{[(cyclobutylmethyl)amino]methyl}imidazo[1,2-a]pyridin-2-yl)methyl]-5H-pyrrolo[2,3-b]pyrazine-2-carboxamide]  14.1 nM
21. COc1cnc(C#N)c(-c2cn(Cc3cn4cc(CNCC56CC(C5)C6)ccc4n3)nn2)c1 [Example 37, 3-{1-[(6-{[({bicyclo[1.1.1]pentan-1-yl}methyl)amino]methyl}imidazo[1,2-a]pyridin-2-yl)methyl]-1H-1,2,3-triazol-4-yl}-5-methoxypyridine-2-carbonitrile]  11.2 nM
22. c1cc2cc(-c3cn(Cc4cn5cc(CNCC6CCC6)ccc5n4)cn3)cnc2[nH]1 [Example 34, (cyclobutylmethyl)({2-[(4-{1H-pyrrolo[2,3-b]pyridin-5-yl}-1H-imidazol-1-yl)methyl]imidazo[1,2-a]pyridin-6-yl}methyl)amine]  9.34 nM
23. Clc1cc(-c2cn(Cc3cn4cc(CNCC5CCC5)ccc4n3)nn2)c2cncn2c1 [Example 24, ({2-[(4-{6-chloroimidazo[1,5-a]pyridin-8-yl}-1H-1,2,3-triazol-1-yl)methyl]imidazo[1,2-a]pyridin-6-yl}methyl)(cyclobutylmethyl)amine]  6.1 nM

Same assay, conditions: inhibition of RNA methyltransferase activity; 5 nM METTL3/14, 0.2 μM RNA substrate, 0.5 μM SAM; lower limit of the assay IC50=5 nM

In order of falling IC50:
1. Cc1ccc2nc(CNC(=O)c3nccc4[nH]ncc34)cn2c1 [Reference Example 1, N-({6-methylimidazo[1,2-a]pyridin-2-yl}methyl)-1H-pyrazolo[4,3-c]pyridine-4-carboxamide]  5340 nM
2. O=C(NCc1cn2cc(CNCC3CCCCC3)ccc2n1)c1cnc2ccccc2c1 [Example 8, N-[(6-{[(cyclohexylmethyl)amino]methyl}imidazo[1,2-a]pyridin-2-yl)methyl]quinoline-3-carboxamide]  1190 nM

Each compound was assayed on Caov-3 cells (assay: Caov3 CTG proliferation assay (CellTiter-Glo)). Conditions: Homo sapiens, 120 hours treatment, 30 μM top concentration.
Assay type: cell-based
Description: (§1) Cell treatment and cell growth assessment: 18 hours post-seeding in white 384-Viewplate (6007480, PerkinElmer) at 1500 cells/well, Caov3 cells were treated for 120 hours with compounds inhibiting the METTL3/14 activity (10 serial semi-log dilutions, 30 μM as top concentration). Upon treatment, Coav-3 cells were incubated for 10 min at RT with the CellTiter-Glo reagent (G7571, Promega). Measurement of the luminescence signal was performed on a microplate reader (Ensight, PerkinElmer).

In order of rising IC50:
1. Clc1cc(-c2cn(Cc3cn4cc(CNCC5CCC5)ccc4n3)nn2)c2cncn2c1 [Example 24, ({2-[(4-{6-chloroimidazo[1,5-a]pyridin-8-yl}-1H-1,2,3-triazol-1-yl)methyl]imidazo[1,2-a]pyridin-6-yl}methyl)(cyclobutylmethyl)amine]  343 nM
2. c1cc2cc(-c3cn(Cc4cn5cc(CNCC6CCC6)ccc5n4)cn3)cnc2[nH]1 [Example 34, (cyclobutylmethyl)({2-[(4-{1H-pyrrolo[2,3-b]pyridin-5-yl}-1H-imidazol-1-yl)methyl]imidazo[1,2-a]pyridin-6-yl}methyl)amine]  1280 nM
3. O=C(NCc1cn2cc(CNCC3CCC3)ccc2n1)c1cnc2[nH]ccc2n1 [Example 18, N-[(6-{[(cyclobutylmethyl)amino]methyl}imidazo[1,2-a]pyridin-2-yl)methyl]-5H-pyrrolo[2,3-b]pyrazine-2-carboxamide]  2790 nM
4. COc1cnc(C#N)c(-c2cn(Cc3cn4cc(CN5CCC(C)(C)CC5)ccc4n3)nn2)c1 [Example 39, 3-[1-({6-[(4,4-dimethylpiperidin-1-yl)methyl]imidazo[1,2-a]pyridin-2-yl}methyl)-1H-1,2,3-triazol-4-yl]-5-methoxypyridine-2-carbonitrile]  5530 nM

Each compound was assayed on KASUMI-1 cells (assay: Kasumi cell assay (CellTiter-Glo cell growth)). Conditions: Homo sapiens, 120 hours treatment, 30 μM top concentration.
Assay type: cell-based
Description: Cell culture: KASUMI-1 cells (ACC20, Leibniz-Institut DSMZ Deutsche Sammlung von Mikroorganismen und Zellkulturen GmbH) were grown in RPMI 1640 (31870-025, Gibco) supplemented with 20% fetal bovine serum (F1524, Gibco), 1 mM sodium pyruvate (11360-039, Gibco) and 2 mM Glutamax (35050-038, Gibco) in a 5% CO2 humidified incubator at 37° C.
as §1, with “KASUMI-1” for “18”, “were seeded” for “post-seeding”, “ultra-low attachment 384-well culture plate (MS-9384WZ, SBio)” for “white 384-Viewplate (6007480, PerkinElmer)”, “a final concentration of 250,000 cells/ml (35 μL/well) and” for “1500 cells/well, Caov3 cells were”, “Kasumi1” for “Coav-3”

In order of falling IC50:
1. c1cc(-c2cn(Cc3cn4cc(CNCC5CCC5)ccc4n3)nn2)c2nncn2c1 [Example 27, (cyclobutylmethyl)({2-[(4-{[1,2,4]triazolo[4,3-a]pyridin-8-yl}-1H-1,2,3-triazol-1-yl)methyl]imidazo[1,2-a]pyridin-6-yl}methyl)amine]  30000 nM
2. COc1cnc(C#N)c(-c2cn(Cc3cn4cc(CN5CCC(C)(C)CC5)ccc4n3)nn2)c1 [Example 39, 3-[1-({6-[(4,4-dimethylpiperidin-1-yl)methyl]imidazo[1,2-a]pyridin-2-yl}methyl)-1H-1,2,3-triazol-4-yl]-5-methoxypyridine-2-carbonitrile]  6210 nM
